According to the NIST ThermoML archive (doi:10.1021/je100362p):
Numbers after ± are expanded uncertainties.

Tests used:
[1] = refractive index (Na D-line) (dimensionless); xn = mol fraction of the nth substance listed; conditions: 101 kPa, Liquid, Standard Abbe refractometry
[2] = xn = mol fraction of the nth substance listed; conditions: 101 kPa, Liquid; for speed of sound: Sing-around technique in a fixed-path interferometer

COc1ccccc1 [anisole] + CCCCCCCCCCO
Conditions	mass density, 298.15 K [kg/m3]	mass density, 303.15 K [kg/m3]	mass density, 308.15 K [kg/m3]	refractive index, 298.15 K	refractive index, 303.15 K	refractive index, 308.15 K	speed of sound, 298.15 K [m/s]	speed of sound, 303.15 K [m/s]	speed of sound, 308.15 K [m/s]
[1], x1 = 0.0817	–	–	–	1.43761 ± 0.00056	1.4356 ± 0.00058	1.43301 ± 0.0006	–	–	–
[1], x1 = 0.144	–	–	–	1.44029 ± 0.00059	1.43803 ± 0.00061	1.43539 ± 0.00062	–	–	–
[1], x1 = 0.2047	–	–	–	1.44304 ± 0.0006	1.44069 ± 0.00062	1.43799 ± 0.00063	–	–	–
[1], x1 = 0.273	–	–	–	1.44629 ± 0.00062	1.44389 ± 0.00062	1.44125 ± 0.00062	–	–	–
[1], x1 = 0.3484	–	–	–	1.45029 ± 0.00061	1.44799 ± 0.00062	1.44522 ± 0.00064	–	–	–
[1], x1 = 0.4099	–	–	–	1.45394 ± 0.00061	1.45164 ± 0.00063	1.44877 ± 0.00064	–	–	–
[1], x1 = 0.4874	–	–	–	1.45908 ± 0.0006	1.45684 ± 0.00062	1.45398 ± 0.00065	–	–	–
[1], x1 = 0.544	–	–	–	1.46319 ± 0.00059	1.46099 ± 0.00062	1.45815 ± 0.00065	–	–	–
[1], x1 = 0.6071	–	–	–	1.46829 ± 0.00058	1.46616 ± 0.00062	1.46323 ± 0.00066	–	–	–
[1], x1 = 0.6699	–	–	–	1.47385 ± 0.00058	1.47181 ± 0.00062	1.46884 ± 0.00066	–	–	–
[1], x1 = 0.7359	–	–	–	1.48043 ± 0.00057	1.47853 ± 0.00062	1.47539 ± 0.00066	–	–	–
[1], x1 = 0.8171	–	–	–	1.48959 ± 0.00059	1.48774 ± 0.0006	1.48475 ± 0.00063	–	–	–
[1], x1 = 0.91	–	–	–	1.50162 ± 0.00051	1.49999 ± 0.0006	1.49685 ± 0.00067	–	–	–
[1], x1 = 0.9464	–	–	–	1.50672 ± 0.00047	1.50539 ± 0.00057	1.50231 ± 0.00069	–	–	–
[1], x1 = 1	–	–	–	1.51495 ± 0.00041	1.51395 ± 0.00054	1.51095 ± 0.0007	–	–	–
[2], x1 = 0.0817	833.984 ± 0.54	830.48 ± 0.55	826.944 ± 0.55	–	–	–	1377.1 ± 1.1	1359.8 ± 1.1	1342.7 ± 1.1
[2], x1 = 0.144	840.044 ± 0.53	836.478 ± 0.54	832.875 ± 0.54	–	–	–	1375.3 ± 1.1	1357.9 ± 1.1	1340.7 ± 1.1
[2], x1 = 0.2047	846.31 ± 0.52	842.682 ± 0.52	839.02 ± 0.53	–	–	–	1373.6 ± 1.1	1356.1 ± 1.1	1338.8 ± 1.1
[2], x1 = 0.273	853.826 ± 0.5	850.126 ± 0.51	846.4 ± 0.52	–	–	–	1371.9 ± 1.1	1354.2 ± 1.1	1336.8 ± 1.1
[2], x1 = 0.3484	862.774 ± 0.49	858.992 ± 0.49	855.195 ± 0.5	–	–	–	1370.2 ± 1.1	1352.4 ± 1.1	1334.8 ± 1.1
[2], x1 = 0.4099	870.64 ± 0.47	866.789 ± 0.48	862.929 ± 0.49	–	–	–	1369.4 ± 1.1	1351.4 ± 1.1	1333.6 ± 1.1
[2], x1 = 0.4874	881.37 ± 0.45	877.429 ± 0.46	873.48 ± 0.47	–	–	–	1368.8 ± 1.1	1350.8 ± 1.1	1332.8 ± 1.1
[2], x1 = 0.544	889.862 ± 0.43	885.853 ± 0.44	881.832 ± 0.45	–	–	–	1369.2 ± 1.1	1350.9 ± 1.1	1332.8 ± 1.1
[2], x1 = 0.6071	900.075 ± 0.42	895.987 ± 0.42	891.877 ± 0.43	–	–	–	1370.4 ± 1.1	1351.9 ± 1.1	1333.6 ± 1.1
[2], x1 = 0.6699	911.097 ± 0.4	906.926 ± 0.4	902.722 ± 0.41	–	–	–	1372.3 ± 1.1	1353.6 ± 1.1	1335 ± 1.1
[2], x1 = 0.7359	923.763 ± 0.37	919.5 ± 0.38	915.191 ± 0.39	–	–	–	1375.5 ± 1.1	1356.5 ± 1.1	1337.6 ± 1.1
[2], x1 = 0.8171	941.067 ± 0.34	936.682 ± 0.35	932.241 ± 0.36	–	–	–	1381.6 ± 1.1	1362.2 ± 1.1	1343 ± 1.1
[2], x1 = 0.91	963.68 ± 0.3	959.139 ± 0.31	954.549 ± 0.32	–	–	–	1392.6 ± 1.1	1372.8 ± 1.1	1352.9 ± 1.1
[2], x1 = 0.9464	973.453 ± 0.28	968.846 ± 0.29	964.201 ± 0.3	–	–	–	1398 ± 1.1	1377.9 ± 1.1	1357.9 ± 1.1
[2], x1 = 1	989.145 ± 0.25	984.433 ± 0.26	979.712 ± 0.27	–	–	–	1406.9 ± 1.1	1386.8 ± 1.1	1366.5 ± 1.1
